According to PubChem BioAssay AID1259407 (Chemical Carcinogenesis Research Information System (CCRIS), 2018):
Active and inactive are the calls of the source. How the calls were made is not given here.

Tested on: CCRIS mutagenicity, Ames/micronucleus/aberration tests
Assay: CCRIS mutagenicity studies
[1] = Test System: AMES SALMONELLA TYPHIMURIUM, Strain/Indicator: TA98, Metabolic Activation: NONE, Method: STANDARD PLATE
[2] = Test System: AMES SALMONELLA TYPHIMURIUM, Strain/Indicator: TA100, Metabolic Activation: NONE, Method: STANDARD PLATE
[3] = Test System: AMES SALMONELLA TYPHIMURIUM, Strain/Indicator: TA98, Metabolic Activation: RAT, LIVER, S-9, AROCLOR 1254, Method: STANDARD PLATE
[4] = Test System: AMES SALMONELLA TYPHIMURIUM, Strain/Indicator: TA100, Metabolic Activation: RAT, LIVER, S-9, AROCLOR 1254, Method: STANDARD PLATE

Compound | mutagenic call [1] | mutagenic call (Test System: AMES SALMONELLA TYPHIMURIUM, Strain/Indicator: TA98, Metabolic Activation: RAT LIVER S-9, AROCLOR 1254, Method: STANDARD PLATE) | mutagenic call [2] | mutagenic call (Test System: AMES SALMONELLA TYPHIMURIUM, Strain/Indicator: TA100, Metabolic Activation: RAT LIVER S-9, AROCLOR 1254, Method: STANDARD PLATE) | mutagenic call (Test System: Ames Salmonella typhimurium, Strain/Indicator: TA97, Metabolic Activation: None, Method: Standard plate) | mutagenic call (Test System: Ames Salmonella typhimurium, Strain/Indicator: TA97, Metabolic Activation: Rat, Liver, S-9, Aroclor 1254 (10%), Method: Standard plate) | mutagenic call (Test System: Ames Salmonella typhimurium, Strain/Indicator: TA102, Metabolic Activation: None, Method: Standard plate) | mutagenic call (Test System: Ames Salmonella typhimurium, Strain/Indicator: TA102, Metabolic Activation: Rat, Liver, S-9, Aroclor 1254 (10%), Method: Standard plate) | mutagenic call (Test System: Ames Salmonella typhimurium, Strain/Indicator: TA104, Metabolic Activation: None, Method: Standard plate) | mutagenic call (Test System: Ames Salmonella typhimurium, Strain/Indicator: TA104, Metabolic Activation: Rat, Liver, S-9, Aroclor 1254 (10%), Method: Standard plate) | mutagenic call (Test System: AMES SALMONELLA TYPHIMURIUM, Strain/Indicator: TA97, Metabolic Activation: NONE, Method: STANDARD PLATE) | mutagenic call (Test System: AMES SALMONELLA TYPHIMURIUM, Strain/Indicator: TA97, Metabolic Activation: RAT, LIVER, S-9, AROCLOR 1254, Method: STANDARD PLATE) | mutagenic call [3] | mutagenic call [4] | mutagenic call (Test System: AMES SALMONELLA TYPHIMURIUM, Strain/Indicator: TA1535, Metabolic Activation: NONE, Method: STANDARD PLATE) | mutagenic call (Test System: AMES SALMONELLA TYPHIMURIUM, Strain/Indicator: TA1535, Metabolic Activation: RAT, LIVER, S-9, AROCLOR 1254, Method: STANDARD PLATE) | mutagenic call (Test System: AMES SALMONELLA TYPHIMURIUM, Strain/Indicator: TA1537, Metabolic Activation: NONE, Method: STANDARD PLATE) | mutagenic call (Test System: AMES SALMONELLA TYPHIMURIUM, Strain/Indicator: TA1537, Metabolic Activation: RAT, LIVER, S-9, AROCLOR 1254, Method: STANDARD PLATE) | mutagenic call (Test System: AMES SALMONELLA TYPHIMURIUM, Strain/Indicator: TA1538, Metabolic Activation: RAT, LIVER, S-9, AROCLOR 1254, Method: STANDARD PLATE)
CC(C)C[C@@H]1NC(=O)[C@H](C)N(C)C(=O)CNC(=O)/C(=C/c2ccccc2)N(C)C1=O | inactive; negative | inactive; negative | inactive; negative | inactive; negative | inactive; negative. nitrosation did not increase mutagenicity | inactive; negative. nitrosation did not increase mutagenicity | inactive; negative. nitrosation did not increase mutagenicity | inactive; negative. nitrosation did not increase mutagenicity | inactive; negative. nitrosation did not increase mutagenicity | inactive; negative. nitrosation did not increase mutagenicity | – | – | – | – | – | – | – | – | –
CC1NC(C(=O)O)Cc2c1[nH]c1ccccc21 (stereo not drawn) | inactive; negative | – | inactive; negative | – | – | – | – | – | – | – | inactive; negative | inactive; negative | inactive; negative | inactive; negative | – | – | – | – | –
Nc1ccc(O)c2c1C(=O)c1ccccc1C2=O | – | – | inactive; negative | – | – | – | – | – | – | – | – | – | inactive; negative | inactive; negative | inactive; negative | inactive; negative | active; positive | active; positive | inactive; negative
Nc1ccccc1SCSc1ccccc1N | inactive; negative | – | inactive; negative | – | – | – | – | – | – | – | – | – | inactive; negative | active; positive | – | – | – | – | –
